Source: patent publication US12527800B2, “Therapeutic agent for Parkinson's disease” (KYOWA KIRIN CO., LTD., priority 2019, dated 2026)

System: patients of Parkinson's disease experiencing motor fluctuations
Experiment: Pooled analysis of phase 2b and phase 3 clinical studies of istradefylline combined with L-DOPA: change from baseline to week 12 and CGI-I at week 12
Type: in vivo, human
Settings: for Mean daily OFF time, change from baseline to week 12: 12 weeks; for Mean daily OFF time, change from baseline to week 12 / Mean daily ON time with dyskinesia, change from baseline to week 12 / Mean daily ON time with non-troublesome dyskinesia, change from baseline to week 12 / Mean daily ON time with troublesome dyskinesia, change from baseline to week 12 / Mean daily ON time without dyskinesia, change from baseline to week 12 / Mean daily ON time without troublesome dyskinesia, change from baseline to week 12 / Mean daily percentage of OFF time, change from baseline to week 12 / Mean daily percentage of ON time with dyskinesia, change from baseline to week 12 / Mean daily percentage of ON time with non-troublesome dyskinesia, change from baseline to week 12 / Mean daily percentage of ON time with troublesome dyskinesia, change from baseline to week 12 / Mean daily percentage of ON time without dyskinesia, change from baseline to week 12 / Mean daily percentage of ON time without troublesome dyskinesia, change from baseline to week 12 / Total UPDRS Parts I-III at ON state, change from baseline to week 12 / UPDRS Part I score, change from baseline to week 12 / UPDRS Part II score OFF state, change from baseline to week 12 / UPDRS Part II score ON state, change from baseline to week 12 / UPDRS Part III score at ON state, change from baseline to week 12 / UPDRS Part IV score, change from baseline to week 12: mean ± SD; for CGI-I Minimally improved, % of patients / CGI-I Minimally improved, number of patients / CGI-I Minimally worse, % of patients / CGI-I Minimally worse, number of patients / CGI-I Much improved, % of patients / CGI-I Much improved, number of patients / CGI-I Much worse, % of patients / CGI-I Much worse, number of patients / CGI-I No change, % of patients / CGI-I No change, number of patients / CGI-I Very much improved, % of patients / CGI-I Very much improved, number of patients / CGI-I Very much worse, % of patients / CGI-I Very much worse, number of patients: week 12
Description: A pooled analysis was performed for two clinical studies of istradefylline combined with L-DOPA previously conducted in Japan. Both studies were performed according to the principles of the Declaration of Helsinki and were identically designed for 12-week, multicenter, randomized, double-blind, placebo-controlled, and parallel-group studies approved by the relevant institutional review boards of each center [(i) Mizuno Y, Kondo T. Adenosine A2A receptor antagonist istradefylline reduces daily OFF time in Parkinson's disease. Mov Disord 2013; 28: 1138-41, and (ii) Mizuno Y, Hasegawa K, Kondo T, et al. Clinical efficacy of istradefylline (KW-6002) in Parkinson's disease: a randomized, controlled study. Mov Disord 2010; 25(10): 1437-43)]. Both studies were registered in ClinicalTrials.gov (NCT00455507 [phase 2b] and NCT00955526 [phase 3]). Both studies enrolled patients of Parkinson's disease who were experiencing motor fluctuations.
Key inclusion criteria included age 20 years, stages 2-4 (OFF state) based on the Modified Hoehn and Yahr (mH&Y) scale, stable treatment regimen of antiparkinsonian drugs, and motor fluctuations with an OFF time of 2 hours or longer per day. Key exclusion criteria included history of surgical operation for Parkinson's disease, cognitive impairment, and pregnancy. The study protocols were approved by the institutional review boards at all participating study sites, and written informed consent was obtained from all patients prior to participation.
In both studies, eligible subjects were randomized to one of three groups: 12-week istradefylline 20 mg/day group, 12-week istradefylline 40 mg/day group, and 12-week placebo group. The subjects attended site visits at weeks 2, 4, 8, and 12 after randomization, and submitted patient diaries covering the 7-day period prior to each visit. The full analysis set included subjects who received at least one dose of study drug and completed at least one set of patient diaries.
The primary outcomes were changes in OFF time (hours/day) from baseline to 12 weeks obtained from the patient diaries, which were compared between the placebo group and the istradefylline group. Other outcomes included changes (%) in daily OFF time, changes in ON time without troublesome dyskinesia (“Good” ON time) (Hauser RA, Deckers F, Lehert P. Parkinson's disease home diary: further validation and implications for clinical trials. Mov Disord 2004; 19(12): 1409-13), (which was the summation of ON time without dyskinesia and ON time with non-troublesome dyskinesia), UPDRS parts I-IV score, and changes in Clinical Global Impressions-Improvement (CGI-I) score from baseline to 12 weeks. The varying from baseline values, and the treatment effect were determined as a difference in mean change between the placebo group and the istradefylline group during the follow up period.
Baseline data were summarized for all and respective treatment groups (placebo and istradefylline: 20 mg or 40 mg). Continuous variables were expressed as mean and standard deviation (SD), whereas categorical variables were expressed as proportions. The following statistical analyses were performed for patients without any missing data (listwise deletion or complete case analysis).

[1] = 20 mg/day, listed as Istradefylline
[2] = 40 mg/day, listed as Istradefylline

CCn1c(=O)c2c(nc(/C=C/c3ccc(OC)c(OC)c3)n2C)n(CC)c1=O [istradefylline]
Mean daily OFF time, change from baseline to week 12 (20 mg/day, N = 235): significant reductions
Mean daily OFF time, change from baseline to week 12 (20 mg/day, N = 235, listed as Istradefylline): -1.23 ± 1.97 h
Mean daily ON time with dyskinesia, change from baseline to week 12 (20 mg/day): 0.19 ± 1.53 h
Mean daily ON time with non-troublesome dyskinesia, change from baseline to week 12 (20 mg/day): significantly increased
Mean daily ON time with troublesome dyskinesia, change from baseline to week 12 (20 mg/day): 0.03 ± 1.33 h
Mean daily ON time without dyskinesia, change from baseline to week 12 (20 mg/day): significantly increased
Mean daily ON time without troublesome dyskinesia, change from baseline to week 12 (20 mg/day): significantly increased
Mean daily percentage of OFF time, change from baseline to week 12 (20 mg/day): significant reductions
Mean daily percentage of ON time with dyskinesia, change from baseline to week 12 (20 mg/day): 1.32 ± 9.36%
Mean daily percentage of ON time with non-troublesome dyskinesia, change from baseline to week 12 (20 mg/day): significantly increased
Mean daily percentage of ON time with troublesome dyskinesia, change from baseline to week 12 (20 mg/day): 0.15 ± 8.12%
Mean daily percentage of ON time without dyskinesia, change from baseline to week 12 (20 mg/day): significantly increased
Mean daily percentage of ON time without troublesome dyskinesia, change from baseline to week 12 (20 mg/day): significantly increased
Total UPDRS Parts I-III at ON state, change from baseline to week 12 (20 mg/day): significant reductions
UPDRS Part I score, change from baseline to week 12 (20 mg/day): −0.2 ± 0.9
UPDRS Part II score OFF state, change from baseline to week 12 (20 mg/day): −1.8 ± 4.1
UPDRS Part II score ON state, change from baseline to week 12 (20 mg/day): −0.5 ± 2.3
UPDRS Part III score at ON state, change from baseline to week 12 (20 mg/day): significant reductions
UPDRS Part IV score, change from baseline to week 12 (20 mg/day): −0.1 ± 1.6
Mean daily ON time with non-troublesome dyskinesia, change from baseline to week 12 [1]: 0.16 ± 1.56 h
Mean daily ON time without dyskinesia, change from baseline to week 12 [1]: 1.03 ± 2.20 h
Mean daily ON time without troublesome dyskinesia, change from baseline to week 12 [1]: 1.19 ± 2.44 h
Mean daily percentage of OFF time, change from baseline to week 12 [1]: −7.62 ± 12.62%
Mean daily percentage of ON time with non-troublesome dyskinesia, change from baseline to week 12 [1]: 1.17 ± 9.54%
Mean daily percentage of ON time without dyskinesia, change from baseline to week 12 [1]: 6.28 ± 13.68%
Mean daily percentage of ON time without troublesome dyskinesia, change from baseline to week 12 [1]: 7.45 ± 14.95%
Total UPDRS Parts I-III at ON state, change from baseline to week 12 [1]: −5.8 ± 8.6
UPDRS Part III score at ON state, change from baseline to week 12 [1]: −5.1 ± 7.2
CGI-I Minimally improved, % of patients (20 mg/day): (36.2) %
CGI-I Minimally improved, number of patients (20 mg/day): 85 number of patients
CGI-I Minimally worse, % of patients (20 mg/day): (5.1) %
CGI-I Minimally worse, number of patients (20 mg/day): 12 number of patients
CGI-I Much improved, % of patients (20 mg/day): (18.3) %
CGI-I Much improved, number of patients (20 mg/day): 43 number of patients
CGI-I Much worse, % of patients (20 mg/day): (1.3) %
CGI-I Much worse, number of patients (20 mg/day): 3 number of patients
CGI-I No change, % of patients (20 mg/day): (36.2) %
CGI-I No change, number of patients (20 mg/day): 85 number of patients
CGI-I Very much improved, % of patients (20 mg/day): (2.6) %
CGI-I Very much improved, number of patients (20 mg/day): 6 number of patients
CGI-I Very much worse, % of patients (20 mg/day): (0.4) %
CGI-I Very much worse, number of patients (20 mg/day): 1 number of patients
Mean daily OFF time, change from baseline to week 12 (40 mg/day, N = 247): significant reductions
Mean daily OFF time, change from baseline to week 12 (40 mg/day, N = 247, listed as Istradefylline): -1.27 ± 2.42 h
Mean daily ON time with dyskinesia, change from baseline to week 12 (40 mg/day): 0.20 ± 1.93 h
Mean daily ON time with non-troublesome dyskinesia, change from baseline to week 12 (40 mg/day): significantly increased
Mean daily ON time with troublesome dyskinesia, change from baseline to week 12 (40 mg/day): 0.06 ± 1.13 h
Mean daily ON time without dyskinesia, change from baseline to week 12 (40 mg/day): significantly increased
Mean daily ON time without troublesome dyskinesia, change from baseline to week 12 (40 mg/day): significantly increased
Mean daily percentage of OFF time, change from baseline to week 12 (40 mg/day): significant reductions
Mean daily percentage of ON time with dyskinesia, change from baseline to week 12 (40 mg/day): 1.28 ± 11.40%
Mean daily percentage of ON time with non-troublesome dyskinesia, change from baseline to week 12 (40 mg/day): significantly increased
Mean daily percentage of ON time with troublesome dyskinesia, change from baseline to week 12 (40 mg/day): 0.36 ± 6.44%
Mean daily percentage of ON time without dyskinesia, change from baseline to week 12 (40 mg/day): significantly increased
Mean daily percentage of ON time without troublesome dyskinesia, change from baseline to week 12 (40 mg/day): significantly increased
Total UPDRS Parts I-III at ON state, change from baseline to week 12 (40 mg/day): significant reductions
UPDRS Part I score, change from baseline to week 12 (40 mg/day): −0.1 ± 1.0
UPDRS Part II score OFF state, change from baseline to week 12 (40 mg/day): significant reductions
UPDRS Part II score ON state, change from baseline to week 12 (40 mg/day): −0.7 ± 2.2
UPDRS Part III score at ON state, change from baseline to week 12 (40 mg/day): significant reductions
UPDRS Part IV score, change from baseline to week 12 (40 mg/day): significant reductions
Mean daily ON time with non-troublesome dyskinesia, change from baseline to week 12 [2]: 0.15 ± 1.36 h
Mean daily ON time without dyskinesia, change from baseline to week 12 [2]: 0.99 ± 2.86 h
Mean daily ON time without troublesome dyskinesia, change from baseline to week 12 [2]: 1.13 ± 2.65 h
Mean daily percentage of OFF time, change from baseline to week 12 [2]: −7.76 ± 15.02%
Mean daily percentage of ON time with non-troublesome dyskinesia, change from baseline to week 12 [2]: 0.92 ± 8.26%
Mean daily percentage of ON time without dyskinesia, change from baseline to week 12 [2]: 6.46 ± 17.10%
Mean daily percentage of ON time without troublesome dyskinesia, change from baseline to week 12 [2]: 7.39 ± 15.73%
Total UPDRS Parts I-III at ON state, change from baseline to week 12 [2]: −6.3 ± 8.1
UPDRS Part II score OFF state, change from baseline to week 12 [2]: −2.0 ± 3.8
UPDRS Part III score at ON state, change from baseline to week 12 [2]: −5.5 ± 6.6
UPDRS Part IV score, change from baseline to week 12 [2]: −0.5 ± 1.6
CGI-I Minimally improved, % of patients (40 mg/day): (32.5) %
CGI-I Minimally improved, number of patients (40 mg/day): 80 number of patients
CGI-I Minimally worse, % of patients (40 mg/day): (6.5) %
CGI-I Minimally worse, number of patients (40 mg/day): 16 number of patients
CGI-I Much improved, % of patients (40 mg/day): (21.5) %
CGI-I Much improved, number of patients (40 mg/day): 53 number of patients
CGI-I Much worse, % of patients (40 mg/day): (0.8) %
CGI-I Much worse, number of patients (40 mg/day): 2 number of patients
CGI-I No change, % of patients (40 mg/day): (34.1) %
CGI-I No change, number of patients (40 mg/day): 84 number of patients
CGI-I Very much improved, % of patients (40 mg/day): (4.5) %
CGI-I Very much improved, number of patients (40 mg/day): 11 number of patients
CGI-I Very much worse, % of patients (40 mg/day): (0.0) %
CGI-I Very much worse, number of patients (40 mg/day): 0 number of patients
